Source: patent US20030023104A1, “Therapeutic compound - fatty acid conjugates” (COMMONWEALTH SCIENTIFIC AND INDUSTRIAL RESEARCH ORGANISATION, priority 1995, published 2003)
Several values for one entry are separate records, joined by “and”; a condition that tells them apart may be missing. Identical values can stand only once.

Tests used:
[1] = tested on: UVB induced oedema; assay: UVB erythema assay (net skin fold thickness); assay type: in vivo, Skh-1 hairless albino female mice; conditions: for activity equivalent to % of the hydrocortisone activity in protecting against UVB induced oedema: 0.5 mg/mouse, applied at Day 0, post UVB exposure
[2] = tested on: UVB induced immunosuppression; assay: Contact Hypersensitivity Assay (oxazolone, net ear swelling); assay type: in vivo, mice; conditions: total 3 MED UVB
Text: The assay used the method described in “Current Protocols in Immunology” (Vol 1, Section 4.2 Eds Coligan et al. (1991) NIH). The sensitiser was Oxazalone. Briefly this method was as follows:
UVB Radiation. Mice were irradiated with a single FL40SE UVB fluorescent tube (Oliphant) in a reflective batten, providing […] UVB radiation measured at target distance using an International Light IL1700 radiometer with a UVB detector sensitive between 250-315 nm. The mice received 0.1179 J/cm^2 UVB radiation, constituting 1 minimal erythemal dose (MED) as previously ascertained, on each of 3 consecutive days, being exposed unrestrained with the wire cage tops removed.
Induction of Systemic Contact Hypersensitivity. Test mice were exposed on the dorsum to 1 MED UVB radiation (or no UVB radiation) at the same hour on days 1, 2 and 3. On days 8 and 9, the mice (irradiated and non-irradiated) were sensitized by topical application to the abdominal skin of 0.1 ml of 3% (w/v) oxazolone (Sigma Chemical Co., St Louis, Mo.) freshly prepared in ethanol. On day 15, the pre-challenge ear thickness was measured using the spring micrometer, and the mice were then challenged by the application of 5 ul freshly prepared 3% oxazolone/ethanol solution to both surfaces of each pinna. Ear thickness was again measured repeatedly between 16-24 hours, and the maximum ear thickness was recorded. The net ear swelling was calculated as the difference between the average pre-challenge and the average post-challenge ear thickness for each treatment group. Statistical significance of the differences in net ear swelling between treatment groups was assessed with Student's t test.
The mice were painted with vehicle, 0.5 mg/mouse HC, 0.5 mg/mouse HC-Suc-GTP2. 1 mg/mouse 17-b HC-Suc-GTP3 or 17-b HC within 10 minutes post UVB exposure. A total of 3 MED of unshielded UVB was used. (Table 3)

[3] = tested on: JURKAT cells (acute T cell human leukemia); conditions: for IC50 / activity (cytotoxicity) when delivered to cultures in ethanol: JURKAT; for IC50: drugs coated onto plates (Table 9); for activity (cytotoxicity) when delivered to cultures in ethanol: ethanol delivery
Experimental: The cytotoxicity of chlorambucil and chlorambucil fatty acid conjugates (CGTP1. P2 and P3) were tested in vitro with JURKAT cells (acute T cell human leukemia). Cells were incubated with drug and viability was determined by a colourmetric proliferation test. Cytotoxicity towards other cells lines was also tested (PC3 human prostate cancer cells, B16 mouse melanoma cells and human peripheral blood mononuclear cells).
JURKAT cells were seeded into 96-well plates at a density of 1.6×10^4 cells/200 μl complete RPMI ± drug and cultured for 64 h. A 1:3 split of confluent PC3 cells in a 75 cm^2 flask were seeded into a 96-well plate and cultured for 48 h in complete RPMI. Media was removed and complete RPMI ± drug was added to wells. Cells were further cultured for 72 h.
i) Ethanol. Drugs were dissolved in ethanol and added to culture media. The final concentration of ethanol in media was no greater than 1% (v/v). This delivery was used for experiments with JURKAT, PBMC, PC3 and B16 cell types.
ii) Coating of plates. Drugs were dissolved in ethanol and aliquots (up to 40 μl) were added to 90% (v/v) isopropanol. Solution (50 μl) was then added to wells of a 96-well plate and the solvent evaporated by heating at 37° C. Media ± cells was then added. This delivery was used for some experiments with JURKAT cells.
Viability was determined using the MTS assay (CellTiter 96TM AQueous Non-Radioactive Cell Proliferation Assay) from Promega. Reagent (40 μl) was added to each well and absorbance values at 490 nm were determined 1 to 4 h later. The effect of drug on cell viability was compared to cultures set up containing no drug (100% viability). Wells containing no cells were used to control for background absorbance (0% viability). Each concentration was tested in at least 3 wells. Concentrations necessary to cause a 50% inhibition of cellular growth of control cells (IC50) were calculated by linear regression.

[4] = tested on: B16 melanoma cells; assay: Tumour Cytotoxicity Model (B16 melanoma in C57 mice); assay type: in vivo, C57 black mice; design: Mean (standard error) of B16 tumour volume adjusted for the variation in initial volume: scale not given here; conditions: for Mean (standard error) of B16 tumour volume adjusted for the variation in initial volume: statistically modified tumour volume; for B16 Tumour Volume: individual mice
Experimental: Groups of C57 black mice were given an initiation dose of 2×10^5 B16 melanoma cells as an intradermal injection. The cells were suspended in MEM without serum. The abdomen was clipped and 100 μl of cells + MEM was injected. […] The tumours were measured with a micrometer and photographed just prior to the injection of drug (day 8-10).
The cytotoxic drugs and their fatty acid conjugates were dissolved or suspended in 4:1 soy bean oil:ethyl oleate. A 10 mg/ml or a 20 mg/ml solution of each parent drug or the fatty acid conjugate made to the same molar concentration as the parent drug was then injected into the same region as the tumour at a dose of 0.5 mg or 1 mg. The tumours were then photographed, measured and re-injected every two to three days.

[5] = tested on: HIV-I U4550; assay: Anti HIV activity, Ag gp120 production in infected JM cells; assay type: cell-based; conditions: JM cells infected with HIV-I U4550, 5 days; read-out: EC50 (concentration which reduces Ag gp120 by 50% in infected cell cultures)
Experimental: (§1) The anti-HIV activities of AZT-Suc-GTP1 and AZT-Suc-GTP2 were also tested. Infected cells were incubated for 5 days with compound. Compounds were dissolved in DMSO and 5-fold dilutions were used. The following parameters were measured: syncytia formation, virus antigen gp120 production, cell survival. Cytotoxicity is also measured in uninfected cells.
(§2) JM (semi mature human T-cell from lymphoblastoid leukemia) infected with HIV-I U4550
EC50=concentration which reduces Ag gp120by 50% in infected cell cultures.

[6] = tested on: JM (semi mature human T-cell from lymphoblastoid leukemia); assay: Cell growth (cytotoxicity) in JM cells; assay type: cell-based; conditions: 5 days, read-out: IC50 (concentration of drug which reduces cell growth by 50%)
Experimental: as §1, §2
IC50=concentration of drug which reduces cell growth by 50%.

[7] = 0.5 mg/mouse topical, applied Day 0 after UV exposure, 2MED UVB
[8] = 0.5 mg/mouse topical, applied Day −3 (3 days prior to UV exposure), 2MED UVB
[9] = 1% (1 mg/mouse) painted within 10 minutes post UVB exposure
[10] = 0.5 mg/mouse topical in ethanol, applied Day −5 (5 days prior to UV exposure), 2MED UVB, measured 24 h
[11] = 1 mg/mouse (1% w/v) topical, applied Day 0 after UV exposure
[12] = 1 mg/mouse (1% w/v) topical, applied Day −3
[13] = 0.5% (0.5 mg/mouse) painted within 10 minutes post UVB exposure

## CCCCCCCCCCCCCCCC(=O)OCC(COC(=O)CCCCCCCCCCCCCCC)(COC(=O)CCCCCCCCCCCCCCC)NC(=O)CNC(=O)CCC(=O)OCC(=O)[C@@]1(O)CC[C@H]2[C@@H]3CCC4=CC(=O)CC[C@]4(C)[C@H]3[C@@H](O)C[C@@]21C [17-b HC-Suc-GTP3, 17-b Hydrocortisone-21-Suc-Gly-Tris-Tripalmitate]
[1]; [7]
  Mean Net Skin Fold Thickness: 42.7 ± 13.7 10^−2 mm
[1]; [8]
  Mean Net Skin Fold Thickness: 90.7 ± 14.8 10^−2 mm
[1]
  activity equivalent to % of the hydrocortisone activity in protecting against UVB induced oedema: approximately 50%
[2]; [9]
  Net Ear Swelling: 32.8 10^−2 mm

## CCCC(=O)O[C@]1(C(=O)CO)CC[C@H]2[C@@H]3CCC4=CC(=O)CC[C@]4(C)[C@H]3[C@@H](O)C[C@@]21C [17b-Hydrocortisone, 17-Butyrate-Hydrocortisone, reference compound]
[2]; [9]
  Net Ear Swelling: 38.6 10^−2 mm

## CCCCCCCCCCCCCCCC(=O)OCC(CO)(COC(=O)CCCCCCCCCCCCCCC)NC(=O)CNC(=O)CCCc1ccc(N(CCCl)CCCl)cc1 [CGTP2]
[3]
  IC50: 17.7 µM
  activity (cytotoxicity) when delivered to cultures in ethanol: not observed
[4]; 0.5 mg and 1.0 mg groups
  difference in tumour volume from the Vehicle group (95% level): significant difference
[4]; 13/11/95, 0.5 mg
  Mean (standard error) of B16 tumour volume adjusted for the variation in initial volume: 2.39 (0.523)
[4]; 13/11/95, 1.0 mg
  Mean (standard error) of B16 tumour volume adjusted for the variation in initial volume: 2.58 (0.523)
[4]; 15/11/95, 0.5 mg
  Mean (standard error) of B16 tumour volume adjusted for the variation in initial volume: 4.07 (0.881)
[4]; 15/11/95, 1.0 mg
  Mean (standard error) of B16 tumour volume adjusted for the variation in initial volume: 3.89 (0.819)
[4]; 16/11/95, 0.5 mg
  Mean (standard error) of B16 tumour volume adjusted for the variation in initial volume: 4.84 (1.06)
[4]; 16/11/95, 1.0 mg
  Mean (standard error) of B16 tumour volume adjusted for the variation in initial volume: 4.23 (0.98)
[4]; 17/11/95, 0.5 mg
  Mean (standard error) of B16 tumour volume adjusted for the variation in initial volume: 4.90 (1.28)
[4]; 17/11/95, 1.0 mg
  Mean (standard error) of B16 tumour volume adjusted for the variation in initial volume: 4.84 (1.19)
[4]; Day 1, drug dose 0.5 mg injected at tumour region
  B16 Tumour Volume: 0.5 mm^2 and 1.0 mm^2 and 2.7 mm^2
[4]; Day 1, drug dose 0.5 mg injected at tumour region, listed as CCTP2
  B16 Tumour Volume: 14.1 mm^2
[4]; Day 1, drug dose 1.0 mg
  B16 Tumour Volume: 8.2 mm^2 and 38.3 mm^2
[4]; Day 1, drug dose 1.0 mg, listed as CCTP2
  B16 Tumour Volume: 5 mm^2
[4]; Day 3, drug dose 0.5 mg
  B16 Tumour Volume: 0.3 mm^2 and 1 mm^2 and 0 mm^2
[4]; Day 3, drug dose 0.5 mg, listed as CCTP2
  B16 Tumour Volume: 27.4 mm^2
[4]; Day 3, drug dose 1.0 mg
  B16 Tumour Volume: 32.7 mm^2 and 73.5 mm^2
[4]; Day 3, drug dose 1.0 mg, listed as CCTP2
  B16 Tumour Volume: 0 mm^2 and 7.7 mm^2
[4]; Day 5, drug dose 0.5 mg
  B16 Tumour Volume: 11.8 mm^2 and 19.1 mm^2 and 0.0 mm^2
[4]; Day 5, drug dose 0.5 mg, listed as CCTP2
  B16 Tumour Volume: 82.8 mm^2
[4]; Day 5, drug dose 1.0 mg
  B16 Tumour Volume: 111.9 mm^2 and 174.1 mm^2
[4]; Day 5, drug dose 1.0 mg, listed as CCTP2
  B16 Tumour Volume: 0 mm^2 and 38.3 mm^2
[4]; Day 6, drug dose 0.5 mg
  B16 Tumour Volume: 19.8 mm^2 and 13.6 mm^2 and 0 mm^2
[4]; Day 6, drug dose 0.5 mg, listed as CCTP2
  B16 Tumour Volume: 167.4 mm^2
[4]; Day 6, drug dose 1.0 mg
  B16 Tumour Volume: 108.4 mm^2 and 240.3 mm^2
[4]; Day 6, drug dose 1.0 mg, listed as CCTP2
  B16 Tumour Volume: 0 mm^2 and 61.6 mm^2
[4]; Day 7, drug dose 0.5 mg
  B16 Tumour Volume: 21.8 mm^2 and 35.1 mm^2 and 0 mm^2
[4]; Day 7, drug dose 0.5 mg, listed as CCTP2
  B16 Tumour Volume: 152.8 mm^2
[4]; Day 7, drug dose 1.0 mg
  B16 Tumour Volume: 254.1 mm^2 and 215.0 mm^2
[4]; Day 7, drug dose 1.0 mg, listed as CCTP2
  B16 Tumour Volume: 0 mm^2 and 92.6 mm^2

## CCCCCCCCCCCCCCCC(=O)OCC(COC(=O)CCCCCCCCCCCCCCC)(COC(=O)CCCCCCCCCCCCCCC)NC(=O)CNC(=O)CCCc1ccc(N(CCCl)CCCl)cc1 [CGTP3, Chlorambucil-Gly-Tris-Tripalmitate]
[3]
  IC50: 30 µM
  activity (cytotoxicity) when delivered to cultures in ethanol: not observed

## CCCCCCCCCCCCCCCC(=O)OCC(CO)(CO)NC(=O)CN [GTP1, Glycine-Tris-Monopalmitate, reference compound]
[3]
  cytotoxicity to JURKAT cells (in words): no activity

## CCCCCCCCCCCCCCCC(=O)OCC(CO)(COC(=O)CCCCCCCCCCCCCCC)NC(=O)CNC(=O)CCC(=O)OCC(=O)C1(O)CCC2C3CCC4=CC(=O)CCC4(C)C3C(O)CC21C (stereo not drawn) [HC-Suc-GTP2, Hydrocortisone-Suc-Gly-Tris-Dipalmitate]
[1]; [10]
  Mean Net Skin Fold Thickness: 104.2 ± 14.7 10^−2 mm
[1]; [7]
  Mean Net Skin Fold Thickness: 60.6 ± 8.6 10^−2 mm
[1]; [8]
  Mean Net Skin Fold Thickness: 94.3 ± 10.3 10^−2 mm
[1]
  activity equivalent to % of the hydrocortisone activity in protecting against UVB induced oedema: approximately 50%
[1]; [11]
  Mean Net Skin Fold Thickness: 57.5 ± 10.9
[1]; [12]
  Mean Net Skin Fold Thickness: 60.8 ± 8.8
[2]; [13]
  Net Ear Swelling: 29.8 10^−2 mm

## C[C@]12CCC(=O)C=C1CC[C@@H]1[C@@H]2[C@@H](O)C[C@@]2(C)[C@H]1CC[C@]2(O)C(=O)CO [Hydrocortisone, hydrocortisone (cortisol or 17 hydroxy corticosterone), reference compound]
[1]; 0.5 mg/mouse topical in ethanol after 2 MED UVB, 24 h
  protection from erythema and oedema: ~100%
[1]; [10]
  Mean Net Skin Fold Thickness: 102.7 ± 12.1 10^−2 mm
[1]; [7]
  Mean Net Skin Fold Thickness: 10.4 ± 8.19 10^−2 mm
[1]; [8]
  Mean Net Skin Fold Thickness: 100.9 ± 7.3 10^−2 mm
[1]; [11]
  Mean Net Skin Fold Thickness: 7.9 ± 4.4
[1]; [12]
  Mean Net Skin Fold Thickness: 62.9 ± 4.0
[1]; 1 mg/mouse (1% w/v) topical, applied Day −5
  Mean Net Skin Fold Thickness: 108.3 ± 5.1
[2]; [13]
  Net Ear Swelling: 32.0 10^−2 mm

## O=c1[nH]cnc2c1ncn2[C@H]1CC[C@@H](CO)O1 [ddI, reference compound]
[5]
  EC50: 1 µM
[6]
  IC50: > 100 µM
